{
  "source": "paper PMC9757755",
  "about": "“Mechanisms of ion selectivity and throughput in the mitochondrial calcium uniporter” (Science Advances, 2022)",
  "biological_target": "T1, TcMCU-EMRE (TcMCU-EMREEM2) (Tribolium castaneum, UniProt D6WIX5)",
  "T1 construct": "gene MCU; MCU without N-terminal domain (residues 1-168 removed), covalently fused to EMRE by flexible peptide linker; tetramer; Venus fusion removed by PreScission cleavage; expressed in Expi293 cells; purified, reconstituted in liposomes and planar bilayer; with Essential MCU regulator, mitochondrial",
  "T1 sequence (D6WIX5 169-367)": "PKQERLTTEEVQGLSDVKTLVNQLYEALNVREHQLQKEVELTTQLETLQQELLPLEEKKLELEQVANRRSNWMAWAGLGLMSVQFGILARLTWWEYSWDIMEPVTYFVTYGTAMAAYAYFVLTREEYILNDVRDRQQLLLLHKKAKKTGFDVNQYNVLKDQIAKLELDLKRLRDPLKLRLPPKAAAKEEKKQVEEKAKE",
  "T1 sequence (D6X268 1-90 partner)": "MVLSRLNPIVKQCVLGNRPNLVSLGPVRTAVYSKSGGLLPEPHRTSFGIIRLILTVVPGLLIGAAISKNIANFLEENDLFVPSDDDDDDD",
  "assay": "planar lipid bilayer electrophysiology, inhibition of macroscopic Ca2+ currents",
  "format": "biochemical",
  "conditions": "symmetric 40 mM CaCl2, -160 mV, pH 7.6, 22-24 C; RuRed titrated in trans chamber with 1 uM RuRed in cis; IMS-side blocker",
  "data": [
    {"compound": "Cl.Cl.Cl.Cl.Cl.Cl.N.N.N.N.N.N.N.N.N.N.N.N.N.N.[O-2].[O-2].[Ru+3].[Ru+3].[Ru+4]", "note": "[ruthenium red]", "values": [
      {"measurement": "IC50", "value": "~0.04", "unit": "µM"}
    ]}
  ]
}
